Measured values published in ChEMBL document CHEMBL4613209, “Quinolone hybrids and their anti-cancer activities: An overview” (Eur J Med Chem, 2019).
≈ marks a conversion by molar mass, not a printed value.

tested on: A549; assay: Anticancer activity against human A549 cells; type: functional, cell-based

| Structure (SMILES) | IC50 [nM] |
| --- | --- |
| CC(C)(C)c1cccc(NC2CCN(C3C(F)=Cc4c5n(cc(C(=O)O)c4=O)-c4ccccc4OC53)C2)c1 (configuration not stated) | 30 to 490 |
| COc1ccc(NC2CCN(C3C(F)=Cc4c5n(cc(C(=O)O)c4=O)-c4ccccc4OC53)C2)cc1 (configuration not stated) | 30 to 490 |
| Cc1ccc(NC2CCN(C3C(F)=Cc4c5n(cc(C(=O)O)c4=O)-c4ccccc4OC53)C2)cc1 (configuration not stated) | 30 to 490 |
| O=C(O)c1cn2c3c(c1=O)C=C(F)C(N1CCC(Nc4ccccc4)C1)C3Oc1ccccc1-2 (configuration not stated) | 30 to 490 |

tested on: P388; assay: Anticancer activity against mouse P388 cells; type: functional, cell-based

| Structure (SMILES) | IC50 [nM] |
| --- | --- |
| CC(C)(C)c1cccc(NC2CCN(C3C(F)=Cc4c5n(cc(C(=O)O)c4=O)-c4ccccc4OC53)C2)c1 (configuration not stated) | 30 to 490 |
| COc1ccc(NC2CCN(C3C(F)=Cc4c5n(cc(C(=O)O)c4=O)-c4ccccc4OC53)C2)cc1 (configuration not stated) | 30 to 490 |
| Cc1ccc(NC2CCN(C3C(F)=Cc4c5n(cc(C(=O)O)c4=O)-c4ccccc4OC53)C2)cc1 (configuration not stated) | 30 to 490 |
| O=C(O)c1cn2c3c(c1=O)C=C(F)C(N1CCC(Nc4ccccc4)C1)C3Oc1ccccc1-2 (configuration not stated) | 30 to 490 |

tested on: P388; assay: Cytotoxicity against mouse P388 cells assessed as reduction in cell viability; type: functional, cell-based

| Structure (SMILES) | IC50 [µg/mL] |
| --- | --- |
| CC(C)(C)c1cccc(NC2CCN(C3C(F)=Cc4c5n(cc(C(=O)O)c4=O)-c4ccccc4OC53)C2)c1 (configuration not stated) | 0.011 to 0.59 (≈ 0.0213 to 1.14 µM) |
| COc1ccc(NC2CCN(C3C(F)=Cc4c5n(cc(C(=O)O)c4=O)-c4ccccc4OC53)C2)cc1 (configuration not stated) | 0.011 to 0.59 (≈ 0.0225 to 1.21 µM) |
| Cc1ccc(NC2CCN(C3C(F)=Cc4c5n(cc(C(=O)O)c4=O)-c4ccccc4OC53)C2)cc1 (configuration not stated) | 0.011 to 0.59 (≈ 0.0232 to 1.25 µM) |
| O=C(O)c1cn2c3c(c1=O)C=C(F)C(N1CCC(Nc4ccccc4)C1)C3Oc1ccccc1-2 (configuration not stated) | 0.011 to 0.59 (≈ 0.0239 to 1.28 µM) |

tested on: HT-29; assay: Anticancer activity against human HT-29 cells; type: functional, cell-based

| Structure (SMILES) | IC50 [nM] |
| --- | --- |
| CC(C)(C)c1cccc(NC2CCN(C3C(F)=Cc4c5n(cc(C(=O)O)c4=O)-c4ccccc4OC53)C2)c1 (configuration not stated) | 30 to 490 |
| COc1ccc(NC2CCN(C3C(F)=Cc4c5n(cc(C(=O)O)c4=O)-c4ccccc4OC53)C2)cc1 (configuration not stated) | 30 to 490 |
| Cc1ccc(NC2CCN(C3C(F)=Cc4c5n(cc(C(=O)O)c4=O)-c4ccccc4OC53)C2)cc1 (configuration not stated) | 30 to 490 |
| O=C(O)c1cn2c3c(c1=O)C=C(F)C(N1CCC(Nc4ccccc4)C1)C3Oc1ccccc1-2 (configuration not stated) | 30 to 490 |

tested on: P388; assay: Cytotoxicity against doxorubicin resistant mouse P388 cells assessed as reduction in cell viability; type: functional, cell-based

| Structure (SMILES) | IC50 [µg/mL] |
| --- | --- |
| CC(C)(C)c1cccc(NC2CCN(C3C(F)=Cc4c5n(cc(C(=O)O)c4=O)-c4ccccc4OC53)C2)c1 (configuration not stated) | 0.011 to 0.59 (≈ 0.0213 to 1.14 µM) |
| COc1ccc(NC2CCN(C3C(F)=Cc4c5n(cc(C(=O)O)c4=O)-c4ccccc4OC53)C2)cc1 (configuration not stated) | 0.011 to 0.59 (≈ 0.0225 to 1.21 µM) |
| Cc1ccc(NC2CCN(C3C(F)=Cc4c5n(cc(C(=O)O)c4=O)-c4ccccc4OC53)C2)cc1 (configuration not stated) | 0.011 to 0.59 (≈ 0.0232 to 1.25 µM) |
| O=C(O)c1cn2c3c(c1=O)C=C(F)C(N1CCC(Nc4ccccc4)C1)C3Oc1ccccc1-2 (configuration not stated) | 0.011 to 0.59 (≈ 0.0239 to 1.28 µM) |

tested on: HT-29; assay: Cytotoxicity against human HT-29 cells assessed as reduction in cell viability; type: functional, cell-based

| Structure (SMILES) | IC50 [µg/mL] |
| --- | --- |
| CC(C)(C)c1cccc(NC2CCN(C3C(F)=Cc4c5n(cc(C(=O)O)c4=O)-c4ccccc4OC53)C2)c1 (configuration not stated) | 0.011 to 0.59 (≈ 0.0213 to 1.14 µM) |
| COc1ccc(NC2CCN(C3C(F)=Cc4c5n(cc(C(=O)O)c4=O)-c4ccccc4OC53)C2)cc1 (configuration not stated) | 0.011 to 0.59 (≈ 0.0225 to 1.21 µM) |
| Cc1ccc(NC2CCN(C3C(F)=Cc4c5n(cc(C(=O)O)c4=O)-c4ccccc4OC53)C2)cc1 (configuration not stated) | 0.011 to 0.59 (≈ 0.0232 to 1.25 µM) |
| O=C(O)c1cn2c3c(c1=O)C=C(F)C(N1CCC(Nc4ccccc4)C1)C3Oc1ccccc1-2 (configuration not stated) | 0.011 to 0.59 (≈ 0.0239 to 1.28 µM) |

tested on: P388; assay: Anticancer activity against doxorubicin resistant mouse P388 cells; type: functional, cell-based

| Structure (SMILES) | IC50 [nM] |
| --- | --- |
| CC(C)(C)c1cccc(NC2CCN(C3C(F)=Cc4c5n(cc(C(=O)O)c4=O)-c4ccccc4OC53)C2)c1 (configuration not stated) | 30 to 490 |
| COc1ccc(NC2CCN(C3C(F)=Cc4c5n(cc(C(=O)O)c4=O)-c4ccccc4OC53)C2)cc1 (configuration not stated) | 30 to 490 |
| Cc1ccc(NC2CCN(C3C(F)=Cc4c5n(cc(C(=O)O)c4=O)-c4ccccc4OC53)C2)cc1 (configuration not stated) | 30 to 490 |
| O=C(O)c1cn2c3c(c1=O)C=C(F)C(N1CCC(Nc4ccccc4)C1)C3Oc1ccccc1-2 (configuration not stated) | 30 to 490 |

tested on: HCT-8; assay: Anticancer activity against human HCT8 cells; type: functional, cell-based

| Structure (SMILES) | IC50 [nM] |
| --- | --- |
| CC(C)(C)c1cccc(NC2CCN(C3C(F)=Cc4c5n(cc(C(=O)O)c4=O)-c4ccccc4OC53)C2)c1 (configuration not stated) | 30 to 490 |
| COc1ccc(NC2CCN(C3C(F)=Cc4c5n(cc(C(=O)O)c4=O)-c4ccccc4OC53)C2)cc1 (configuration not stated) | 30 to 490 |
| Cc1ccc(NC2CCN(C3C(F)=Cc4c5n(cc(C(=O)O)c4=O)-c4ccccc4OC53)C2)cc1 (configuration not stated) | 30 to 490 |
| O=C(O)c1cn2c3c(c1=O)C=C(F)C(N1CCC(Nc4ccccc4)C1)C3Oc1ccccc1-2 (configuration not stated) | 30 to 490 |

tested on: B16-F10; assay: Cytotoxicity against mouse B16F10 cells assessed as reduction in cell viability; type: functional, cell-based

| Structure (SMILES) | IC50 [µg/mL] |
| --- | --- |
| CC(C)(C)c1cccc(NC2CCN(C3C(F)=Cc4c5n(cc(C(=O)O)c4=O)-c4ccccc4OC53)C2)c1 (configuration not stated) | 0.011 to 0.59 (≈ 0.0213 to 1.14 µM) |
| COc1ccc(NC2CCN(C3C(F)=Cc4c5n(cc(C(=O)O)c4=O)-c4ccccc4OC53)C2)cc1 (configuration not stated) | 0.011 to 0.59 (≈ 0.0225 to 1.21 µM) |
| Cc1ccc(NC2CCN(C3C(F)=Cc4c5n(cc(C(=O)O)c4=O)-c4ccccc4OC53)C2)cc1 (configuration not stated) | 0.011 to 0.59 (≈ 0.0232 to 1.25 µM) |
| O=C(O)c1cn2c3c(c1=O)C=C(F)C(N1CCC(Nc4ccccc4)C1)C3Oc1ccccc1-2 (configuration not stated) | 0.011 to 0.59 (≈ 0.0239 to 1.28 µM) |

tested on: B16-F10; assay: Anticancer activity against mouse B16F10 cells; type: functional, cell-based

| Structure (SMILES) | IC50 [nM] |
| --- | --- |
| CC(C)(C)c1cccc(NC2CCN(C3C(F)=Cc4c5n(cc(C(=O)O)c4=O)-c4ccccc4OC53)C2)c1 (configuration not stated) | 30 to 490 |
| COc1ccc(NC2CCN(C3C(F)=Cc4c5n(cc(C(=O)O)c4=O)-c4ccccc4OC53)C2)cc1 (configuration not stated) | 30 to 490 |
| Cc1ccc(NC2CCN(C3C(F)=Cc4c5n(cc(C(=O)O)c4=O)-c4ccccc4OC53)C2)cc1 (configuration not stated) | 30 to 490 |
| O=C(O)c1cn2c3c(c1=O)C=C(F)C(N1CCC(Nc4ccccc4)C1)C3Oc1ccccc1-2 (configuration not stated) | 30 to 490 |

tested on: MCF7; assay: Anticancer activity against human MCF7 cells; type: functional, cell-based

| Structure (SMILES) | IC50 [nM] |
| --- | --- |
| CC(C)(C)c1cccc(NC2CCN(C3C(F)=Cc4c5n(cc(C(=O)O)c4=O)-c4ccccc4OC53)C2)c1 (configuration not stated) | 30 to 490 |
| COc1ccc(NC2CCN(C3C(F)=Cc4c5n(cc(C(=O)O)c4=O)-c4ccccc4OC53)C2)cc1 (configuration not stated) | 30 to 490 |
| Cc1ccc(NC2CCN(C3C(F)=Cc4c5n(cc(C(=O)O)c4=O)-c4ccccc4OC53)C2)cc1 (configuration not stated) | 30 to 490 |
| O=C(O)c1cn2c3c(c1=O)C=C(F)C(N1CCC(Nc4ccccc4)C1)C3Oc1ccccc1-2 (configuration not stated) | 30 to 490 |

tested on: A549; assay: Cytotoxicity against human A549 cells assessed as reduction in cell viability; type: functional, cell-based

| Structure (SMILES) | IC50 [µg/mL] |
| --- | --- |
| CC(C)(C)c1cccc(NC2CCN(C3C(F)=Cc4c5n(cc(C(=O)O)c4=O)-c4ccccc4OC53)C2)c1 (configuration not stated) | 0.011 to 0.59 (≈ 0.0213 to 1.14 µM) |
| COc1ccc(NC2CCN(C3C(F)=Cc4c5n(cc(C(=O)O)c4=O)-c4ccccc4OC53)C2)cc1 (configuration not stated) | 0.011 to 0.59 (≈ 0.0225 to 1.21 µM) |
| Cc1ccc(NC2CCN(C3C(F)=Cc4c5n(cc(C(=O)O)c4=O)-c4ccccc4OC53)C2)cc1 (configuration not stated) | 0.011 to 0.59 (≈ 0.0232 to 1.25 µM) |
| O=C(O)c1cn2c3c(c1=O)C=C(F)C(N1CCC(Nc4ccccc4)C1)C3Oc1ccccc1-2 (configuration not stated) | 0.011 to 0.59 (≈ 0.0239 to 1.28 µM) |

tested on: Lewis lung carcinoma cell line; assay: Anticancer activity against mouse LLC cells; type: functional, cell-based

| Structure (SMILES) | IC50 [nM] |
| --- | --- |
| CC(C)(C)c1cccc(NC2CCN(C3C(F)=Cc4c5n(cc(C(=O)O)c4=O)-c4ccccc4OC53)C2)c1 (configuration not stated) | 30 to 490 |
| COc1ccc(NC2CCN(C3C(F)=Cc4c5n(cc(C(=O)O)c4=O)-c4ccccc4OC53)C2)cc1 (configuration not stated) | 30 to 490 |
| Cc1ccc(NC2CCN(C3C(F)=Cc4c5n(cc(C(=O)O)c4=O)-c4ccccc4OC53)C2)cc1 (configuration not stated) | 30 to 490 |
| O=C(O)c1cn2c3c(c1=O)C=C(F)C(N1CCC(Nc4ccccc4)C1)C3Oc1ccccc1-2 (configuration not stated) | 30 to 490 |
